Assay results as given in publication PMC10938439, “C-3 Steroidal Hemiesters as Inhibitors of 17β-Hydroxysteroid Dehydrogenase Type 10” (ACS Omega, 2024).
Several values for one entry are separate records, joined by “and”; a condition that tells them apart may be missing. Identical values can stand only once. Entries after “also recorded” stand apart in the source; their conditions may differ.

Key:
17β-HSD10 [1] = target: T1, 17β-HSD10 (Homo sapiens, UniProt Q99714); test: Inhibition of allopregnanolone to 5α-dihydroprogesterone transformation by recombinant 17β-HSD10; format: biochemical; conditions: 20 μM allopregnanolone as substrate; mean ± SEM (n = 4)
T1 construct: inferred from Ni-NTA purification with imidazole elution; made in house; host or cells: E. coli BL21 (DE3)
T1 sequence (Q99714 1-261): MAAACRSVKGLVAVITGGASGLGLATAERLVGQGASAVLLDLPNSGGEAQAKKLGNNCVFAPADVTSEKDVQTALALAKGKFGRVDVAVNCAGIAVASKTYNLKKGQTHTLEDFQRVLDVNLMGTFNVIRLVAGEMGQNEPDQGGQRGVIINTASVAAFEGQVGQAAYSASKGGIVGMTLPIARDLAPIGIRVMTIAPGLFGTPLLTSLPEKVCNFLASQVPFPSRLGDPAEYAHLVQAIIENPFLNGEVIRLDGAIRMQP
Description: Compound 23 (5 mM stock solution) was diluted with DMSO to the working concentrations. DMSO was used as vehicle control. The enzyme activity was determined as described in the previous section; the only difference was the replacement of 25 μM 17β-estradiol with 20 μM allopregnanolone as 17β-HSD10 substrate. For IC50 value determination, dose–response inhibition at 10 different concentrations of inhibitor (0.16–33.75 μM) was determined, and the data were analyzed by GraphPad Prism 8.4.3 (GraphPad Software Inc.). All measurements were performed in a tetraplicate.

17β-HSD10 [2] = target: T1, 17β-HSD10; test: Inhibition of 17β-estradiol to estrone transformation by purified recombinant 17β-HSD10 (NADH fluorescence); format: biochemical; conditions: purified recombinant 17β-HSD10, 17β-estradiol as substrate; means ± SEM (n = 4)
Description: As standards, we used the known inhibitor AG18051 as the positive control and the published steroidal compounds,[18] namely, pregnenolone, testosterone, dihydrotestosterone, androsterone, epiandrosterone, and dehydroepiandrosterone.
17β-HSD10 was performed as described previously.[11] Briefly, the autoinduction and overexpression were performed at 25 °C for 18 h in the E. coli BL21 (DE3) strain. The bacterial pellet was resuspended in lysis buffer that consisted of sodium phosphate buffer ([…]), NaCl (150 mM), and imidazole (10 mM, pH 8.0) with 1 mg/mL lysozyme and benzonase (150 U/mL). cOmplete EDTA-free protease inhibitor cocktail was incubated for 20 min on ice and then sonicated (12 × 10 s pulses with 30 s pauses). The supernatant was applied to the Ni-NTA agarose resin after centrifugation (16 000g, 10 min, 4 °C). Then, the solution was incubated on ice for 1 h with gentle stirring.
The standard steroids were screened at 1 and 10 μM concentrations, and the tested compounds and standard AG18051 were screened at 10 μM concentration. For compounds with at least 50% inhibition of 17β-HSD10, the IC50 values were determined.
Steroid stock solutions (5 mM) were further diluted with DMSO to the working concentrations. DMSO was used as a vehicle control, and AG18051 was used as a control inhibitor. The enzyme activity was determined fluorometrically at 37 °C in the activity assay buffer [100 mM potassium phosphate buffer (pH 8.0)]. The general reaction mixture (200 μL per well) consisted of 17β-estradiol (25 μM, DMSO), NAD+ (500 μM, deionized water), recombinant 17β-HSD10 (45 nM), and different concentrations of inhibitor (2.2% (v/v) final concentration of DMSO as solvent). Before the addition of substrate, the reaction mixture of enzyme, cofactor, and inhibitor in the assay buffer was preincubated for 5 min at 37 °C. The increase of fluorescence (Ex/Em = 340/460 nm) due to the formation of NADH was monitored for 20 min (30 s intervals). For IC50 value determination, dose–response inhibition at 11 different concentrations of inhibitor (0.6–33.75 μM) was determined and the data were analyzed by GraphPad Prism 8.4.3 (GraphPad Software Inc.). All measurements were performed in a tetraplicate.

[3] = design: method as in PMID 30296546; conditions: cited from earlier work
[4] = design: method as in PMID 30296546; conditions: cited from earlier work; remark: listed apart in the source
HEK-293 cells [5] = test: CellTiter-Glo luminescent cell viability assay; format: cell-based; conditions: HEK-293, 1, 10 and 20 μM
Description: (§1) Finally, because the strongest inhibitor identified in vitro compound 23 has a favorable permeability coefficient, its potency to inhibit 17β-HSD10 also at the cellular level was determined. First, it was necessary to exclude the possibility that higher concentrations of compound 23 could be unfavorable to cells. The effects of compound 23 on the cellular viability and cytotoxicity of this compound (1, 10, and 20 μM) were determined using CellTiter-Glo Viability Assay and CellTox Green Assay, respectively, on HEK-293 cell line.
(§2) HEK-293 cells in DMEM (Capricorn) were supplemented with fetal bovine serum (10%, Gibco), L-glutamine (2 mM, Lonza), and nonessential amino acid additives (Gibco). Cells were maintained at 37 °C under a humidified atmosphere of 5% CO2. Compound 23 was tested on the HEK-293 cell line on cell viability using CellTox Green (G8741, Promega) and the CellTiter-Glo 2.0 kit (G9241, Promega), respectively, to establish their cytotoxic effect. Using a Tecan Spark 10 M instrument, the measurements were performed as end point methods in the multiplex. For multiplex measurement, 7500 cells were seeded per well in 50 μL of culture media and cultured for 24 h before the addition of selected compounds. […] Next, the CellTiter-Glo Luminescent Cell Viability Assay with an integration time of 500 ms was determined.

HEK-293 cells [6] = test: CellTox Green cytotoxicity assay; format: cell-based; conditions: HEK-293, up to 20 μM
Description: as §1, §2

Structure (SMILES): C[C@@]12CCC[C@H]1[C@@H]1CC=C3C[C@@H](OC(=O)CCCCC(=O)O)CC[C@]3(C)[C@H]1CC2 [Compound 23, Androst-5-en-3β-yl Hemiadipate]
- IC50 (17β-HSD10 [1]): ~15.2 µM and 15.2 µM
- IC50 (17β-HSD10 [2]): ~5.59 µM and 5.59 µM
- rat plasma stability, % remaining after 8 h [3]: 32%
- human plasma stability, % remaining after 8 h [4]: 100%
- cellular viability (CellTiter-Glo) (HEK-293 cells [5]): does not influence HEK-293 viability
- cytotoxicity (CellTox Green) (HEK-293 cells [6]): not cytotoxic; also recorded: not toxic
